Patent US20200216441A1, “PESTICIDALLY ACTIVE HETEROCYCLIC DERIVATIVES WITH SULFUR CONTAINING SUBSTITUENTS” (SYNGENTA PARTICIPATIONS AG, priority 2017, published 2020)

Experiments:
[1] = system: Euschistus heros (Neotropical Brown Stink Bug); test: whole plant or invertebrate; format: in vivo; conditions: 120 h, application rate of 200 ppm, N2 nymphs on sprayed soybean leaves, 5 days after infestation, read-out: effect in at least one of the two categories (mortality or growth inhibition)
[2] = system: Myzus persicae (Green Peach Aphid); test: whole plant or invertebrate; format: in vivo; conditions: 144 h, test rate of 24 ppm, systemic, roots of infested pea seedlings in test solution, 6 days
[3] = system: Plutella xylostella (Diamond Back Moth); test: whole plant or invertebrate; format: in vivo; conditions: 120 h, application rate of 200 ppm, L2 larvae on treated artificial diet, 5 days after infestation, read-out: effect in at least one of the two categories (mortality or growth inhibition)
[4] = system: Spodoptera littoralis (Egyptian Cotton Leaf Worm); test: Spodoptera littoralis (Egyptian Cotton Leaf Worm), uptake by lettuce roots from agar; format: in vivo; conditions: 144 h, test rate of 12.5 ppm, compound in agar absorbed by lettuce roots, 6 days after infestation, read-out: effect in at least one of the three categories (mortality, anti-feeding, or growth inhibition)
Description: Example B10: Spodoptera littoralis (Egyptian Cotton Leaf Worm)
Test compounds were applied by pipette from 10′000 ppm DMSO stock solutions into 24-well plates and mixed with agar. Lettuce seeds were placed onto the agar and the multi well plate was closed by another plate which contained also agar. After 7 days the compound was absorbed by the roots and the lettuce grew into the lid plate. The lettuce leaves were then cut off into the lid plate. Spodoptera eggs were pipetted through a plastic stencil onto a humid gel blotting paper and the lid plate was closed with it.

[5] = system: Myzus persicae (Green Peach Aphid); test: whole plant or invertebrate; conditions: foliar, 144 h
[6] = system: Spodoptera littoralis (Egyptian Cotton Leaf Worm); test: whole plant or invertebrate; conditions: in Gossypium barbadense, foliar, 72 h, read-out: control (mortality, anti-feeding effect, growth inhibition)
[7] = system: Diabrotica Balteata (Corn Root Worm); test: Diabrotica balteata (Corn Root Worm); conditions: in Zea mays, 96 h, read-out: effect in at least one of the two categories (mortality or growth inhibition)
[8] = system: Tetranychus urticae (Two-Spotted Spider Mite); conditions: foliar, 192 h
[9] = system: Bemisia tabaci (Cotton White Fly); conditions: in Gossypium hirsutum, foliar, 144 h
[10] = system: Frankliniella occidentalis (Western Flower Thrips); conditions: foliar, 168 h
[11] = system: Myzus persicae (Green Peach Aphid); test: Myzus persicae (Green Peach Aphid). Intrinsic Activity; conditions: 120 h

CCS(=O)(=O)c1cc(OCC2CC2)cnc1-c1nc2cc(C(F)(F)F)ncc2n1C [Compound P24, 2-[5-(cyclopropylmethoxy)-3-ethylsulfonyl-2-pyridyl]-3-methyl-6-(trifluoromethyl)imidazo[4,5-c]pyridine]
≥ 80%: percent effect (mortality or growth inhibition) at 200 ppm [1] | mortality at 24 ppm [2] | percent effect (mortality or growth inhibition) at 200 ppm [3] | percent effect (mortality, anti-feeding or growth inhibition) at 12.5 ppm [4] | mortality at 200 ppm [5] | mortality at 200 ppm [6] | mortality at 200 ppm [7]

CCS(=O)(=O)c1cc(OC(F)(F)Br)cnc1-c1nc2cc(C(F)(F)F)ncc2n1C [Compound P99, 2-[5-[bromo(difluoro)methoxy]-3-ethylsulfonyl-2-pyridyl]-3-methyl-6-(trifluoromethyl)imidazo[4,5-c]pyridine]
≥ 80%: percent effect (mortality or growth inhibition) at 200 ppm [1] | percent effect (mortality or growth inhibition) at 200 ppm [3] | percent effect (mortality, anti-feeding or growth inhibition) at 12.5 ppm [4] | mortality at 200 ppm [6] | mortality at 200 ppm [7] | mortality at 200 ppm [8]

CCS(=O)(=O)c1cc(OC(C)(C)C#N)cnc1-c1nc2cc(C(F)(F)F)ncc2n1C [Compound P18, 2-[[5-ethylsulfonyl-6-[3-methyl-6-(trifluoromethyl)imidazo[4,5-c]pyridin-2-yl]-3-pyridyl]oxy]-2-methyl-propanenitrile]
≥ 80%: percent effect (mortality or growth inhibition) at 200 ppm [1] | mortality at 24 ppm [2] | percent effect (mortality or growth inhibition) at 200 ppm [3] | percent effect (mortality, anti-feeding or growth inhibition) at 12.5 ppm [4] | mortality at 200 ppm [5] | mortality at 200 ppm [6] | mortality at 200 ppm [7] | mortality at 200 ppm [9] | mortality at 200 ppm [8] | mortality at 200 ppm [10]

CCS(=O)(=O)c1cc(OC(C)C)cnc1-c1nc2cc(C(F)(F)F)ncc2n1C [Compound P28, 2-(3-ethylsulfonyl-5-isopropoxy-2-pyridyl)-3-methyl-6-(trifluoromethyl)imidazo[4,5-c]pyridine]
≥ 80%: percent effect (mortality or growth inhibition) at 200 ppm [1] | mortality at 24 ppm [2] | percent effect (mortality or growth inhibition) at 200 ppm [3] | percent effect (mortality, anti-feeding or growth inhibition) at 12.5 ppm [4] | mortality at 200 ppm [5] | mortality at 200 ppm [6] | mortality at 200 ppm [7] | mortality at 200 ppm [9]

CCSc1cc(OC(C)(C)C#N)cnc1-c1nc2cc(C(F)(F)F)ncc2n1C [Compound P19, 2-[[5-ethylsulfanyl-6-[3-methyl-6-(trifluoromethyl)imidazo[4,5-c]pyridin-2-yl]-3-pyridyl]oxy]-2-methyl-propanenitrile]
≥ 80%: percent effect (mortality or growth inhibition) at 200 ppm [1] | percent effect (mortality or growth inhibition) at 200 ppm [3] | mortality at 200 ppm [5] | mortality at 200 ppm [6] | mortality at 200 ppm [7] | mortality at 12 ppm [11] | mortality at 200 ppm [9] | mortality at 200 ppm [8]

CCS(=O)(=O)c1cc(OC(CF)CF)cnc1-c1nc2cc(C(F)(F)F)ncc2n1C [Compound P53, 2-[3-ethylsulfonyl-5-[2-fluoro-1-(fluoromethyl)ethoxy]-2-pyridyl]-3-methyl-6-(trifluoromethyl)imidazo[4,5-c]pyridine]
≥ 80%: percent effect (mortality or growth inhibition) at 200 ppm [1] | mortality at 24 ppm [2] | percent effect (mortality or growth inhibition) at 200 ppm [3] | mortality at 200 ppm [5] | mortality at 200 ppm [6] | mortality at 200 ppm [7] | mortality at 200 ppm [9] | mortality at 200 ppm [8] | mortality at 200 ppm [10]

CCS(=O)(=O)c1cc(ON=C(C)C)cnc1-c1nc2cc(C(F)(F)F)ncc2n1C [Compound P97, N-[[5-ethylsulfonyl-6-[3-methyl-6-(trifluoromethyl)imidazo[4,5-c]pyridin-2-yl]-3-pyridyl]oxy]propan-2-imine]
≥ 80%: percent effect (mortality or growth inhibition) at 200 ppm [1] | percent effect (mortality or growth inhibition) at 200 ppm [3] | percent effect (mortality, anti-feeding or growth inhibition) at 12.5 ppm [4] | mortality at 200 ppm [5] | mortality at 200 ppm [6] | mortality at 200 ppm [7] | mortality at 200 ppm [9]
